{"source": "patent US20250115926A1", "about": "“DEREGULATED DHS AND TYRA ENZYMES OF GRASSES ENABLE EFFICIENT PRODUCTION OF BOTH TYROSINE AND PHENYLALANINE” (Wisconsin Alumni Research Foundation, priority 2023, published 2025)", "key": {"[1]": {"target": "Brachypodium distachyon BdDHS1a, SEQ ID NO: 1, recombinant (Brachypodium distachyon, UniProt I1GSB3)", "sequence (I1GSB3 46-537)": "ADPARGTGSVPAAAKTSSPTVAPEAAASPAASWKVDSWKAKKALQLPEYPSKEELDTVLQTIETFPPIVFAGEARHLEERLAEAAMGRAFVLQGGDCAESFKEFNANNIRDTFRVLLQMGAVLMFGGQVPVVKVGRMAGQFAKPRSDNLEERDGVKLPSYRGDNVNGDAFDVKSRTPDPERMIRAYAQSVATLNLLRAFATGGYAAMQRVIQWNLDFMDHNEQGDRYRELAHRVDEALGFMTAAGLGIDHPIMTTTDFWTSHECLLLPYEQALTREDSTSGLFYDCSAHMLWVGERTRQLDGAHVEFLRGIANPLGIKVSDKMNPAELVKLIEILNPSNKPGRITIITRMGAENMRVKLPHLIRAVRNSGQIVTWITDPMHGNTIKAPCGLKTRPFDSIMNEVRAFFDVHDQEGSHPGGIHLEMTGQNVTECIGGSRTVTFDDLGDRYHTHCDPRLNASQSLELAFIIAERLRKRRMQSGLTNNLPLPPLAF", "assay": "DHS activity: kinetics and effector inhibition", "from_the_text": "(§1) To examine their functional properties, the recombinant DHS enzymes of Brachypodium were produced and characterized in vitro.\n(§2) As recent studies have shown that plant DHS enzymes are feedback-inhibited by multiple effector molecules^15, 16, we tested the effect of AAAs and another 14 related metabolites, including various intermediates of the shikimate pathway and the pathways downstream of AAAs, on Brachypodium DHS enzymes.\n(§3) The DHS assay for UHPLC-MS quantification was set up using the same settings as described in the previous paragraph for the UV-based DHS assay, which guaranteed at least 10 minutes of reaction linearity. After a 10-minute incubation, 20 μL of the reactions (out of a total volume of 50 μL) were mixed into 80 μL of methanol, vortexed and transferred to vials for injection. Analysis of DAHP by UHPLC-MS was conducted using the same chromatographic settings as described for the UHPLC-MS analysis of soluble metabolites and compared with an authentic DAHP standard (Sta. Cruz biotechnology, cat. no. sc-216432)."}, "[2]": {"target": "T1, Brachypodium distachyon BdTyrAnc (non-canonical TyrA), SEQ ID NO: 37, recombinant (Brachypodium distachyon, UniProt I1GYB3)", "T1 construct": "from cDNA", "T1 sequence (I1GYB3 58-361)": "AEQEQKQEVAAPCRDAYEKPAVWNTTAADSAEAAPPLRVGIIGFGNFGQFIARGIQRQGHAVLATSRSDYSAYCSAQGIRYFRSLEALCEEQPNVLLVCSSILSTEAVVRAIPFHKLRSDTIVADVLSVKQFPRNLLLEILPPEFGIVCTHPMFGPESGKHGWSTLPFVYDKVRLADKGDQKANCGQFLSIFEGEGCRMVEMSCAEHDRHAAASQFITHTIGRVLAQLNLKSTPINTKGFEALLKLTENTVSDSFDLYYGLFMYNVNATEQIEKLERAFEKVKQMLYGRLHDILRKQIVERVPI", "assay": "TyrA arogenate dehydrogenase kinetics and tyrosine inhibition (340 nm)", "assay_type": "biochemical", "conditions": "arogenate and NADP^+", "from_the_text": "(§4) Next, to study the biochemical properties of grass TyrA enzymes, we generated and characterized recombinant purified TyrA proteins from Brachypodium (BdTyrA) and Sorghum (SbTyrA), two distantly related grass species^43, 44. Whereas TyrA enzymes from dicot plants are generally NADP^+-dependent arogenate dehydrogenases^20, 39, 45, except for NADP^+-prephenate dehydrogenases in the legume family^40, 46, previous reports on the substrate preference of grass TyrA enzymes are inconclusive^17, 19. […] NAD^+-prephenate dehydrogenase activity was absent in all cases, ruling out a significant contamination of the enzyme preparations with the TyrA enzyme from E. coli^47.48."}, "[3]": {"target": "T2, Sorghum bicolor SbTyrAnc (non-canonical TyrA), SEQ ID NO: 43, recombinant (Sorghum bicolor, UniProt C5Z447)", "T2 construct": "from cDNA", "T2 sequence (C5Z447 56-382)": "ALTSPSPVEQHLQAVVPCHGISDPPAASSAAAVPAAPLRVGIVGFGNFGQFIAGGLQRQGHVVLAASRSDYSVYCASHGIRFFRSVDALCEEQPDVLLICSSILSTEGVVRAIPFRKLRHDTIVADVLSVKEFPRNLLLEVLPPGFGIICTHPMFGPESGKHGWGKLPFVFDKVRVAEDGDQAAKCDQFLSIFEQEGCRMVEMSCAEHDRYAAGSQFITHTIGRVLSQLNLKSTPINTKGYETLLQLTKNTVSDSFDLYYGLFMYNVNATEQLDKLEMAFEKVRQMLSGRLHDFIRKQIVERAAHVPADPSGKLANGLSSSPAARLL", "assay": "TyrA arogenate dehydrogenase kinetics and tyrosine inhibition (340 nm)", "assay_type": "biochemical", "conditions": "arogenate and NADP^+", "from_the_text": "as §4"}, "[4]": {"target": "Brachypodium distachyon BdDHS1b, SEQ ID NO: 3, recombinant (Brachypodium distachyon, UniProt I1H4W3)", "sequence (I1H4W3 37-542)": "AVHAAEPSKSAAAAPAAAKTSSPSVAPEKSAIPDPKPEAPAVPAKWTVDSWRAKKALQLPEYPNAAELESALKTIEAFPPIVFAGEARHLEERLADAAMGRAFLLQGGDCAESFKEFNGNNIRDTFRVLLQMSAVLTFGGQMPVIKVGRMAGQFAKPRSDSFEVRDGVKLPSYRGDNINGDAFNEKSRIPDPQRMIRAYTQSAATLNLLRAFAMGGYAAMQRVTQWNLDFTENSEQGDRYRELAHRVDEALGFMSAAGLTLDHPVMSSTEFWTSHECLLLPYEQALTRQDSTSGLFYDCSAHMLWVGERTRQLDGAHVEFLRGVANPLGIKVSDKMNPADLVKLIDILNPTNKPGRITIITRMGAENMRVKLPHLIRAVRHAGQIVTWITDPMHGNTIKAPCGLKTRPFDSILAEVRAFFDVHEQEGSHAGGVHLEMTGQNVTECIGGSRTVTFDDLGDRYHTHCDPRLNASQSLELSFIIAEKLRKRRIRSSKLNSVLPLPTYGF", "assay": "DHS activity: kinetics and effector inhibition", "assay_type": "biochemical", "from_the_text": "as §1, §2, §3"}, "[5]": {"target": "Brachypodium distachyon BdDHS2, SEQ ID NO: 5, recombinant (Brachypodium distachyon, UniProt I1I809)", "sequence (I1I809 31-503)": "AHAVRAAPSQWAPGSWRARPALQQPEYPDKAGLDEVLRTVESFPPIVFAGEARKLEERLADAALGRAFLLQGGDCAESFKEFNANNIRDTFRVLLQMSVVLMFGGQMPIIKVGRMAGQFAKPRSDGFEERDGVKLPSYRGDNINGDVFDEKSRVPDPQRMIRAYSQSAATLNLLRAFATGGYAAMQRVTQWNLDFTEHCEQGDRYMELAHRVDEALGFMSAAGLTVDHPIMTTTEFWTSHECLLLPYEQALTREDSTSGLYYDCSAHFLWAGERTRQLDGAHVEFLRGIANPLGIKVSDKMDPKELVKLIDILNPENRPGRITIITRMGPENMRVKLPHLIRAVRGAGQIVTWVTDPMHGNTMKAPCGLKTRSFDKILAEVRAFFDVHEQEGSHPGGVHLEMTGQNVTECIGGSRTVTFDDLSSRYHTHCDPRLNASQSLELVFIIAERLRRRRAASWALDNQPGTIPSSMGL", "assay": "DHS activity: kinetics and effector inhibition", "assay_type": "biochemical", "from_the_text": "as §1, §2, §3"}, "[6]": {"target": "Sorghum bicolor SbDHS1b, SEQ ID NO: 11, recombinant (Sorghum bicolor, UniProt C5WXQ3)", "sequence (C5WXQ3 48-551)": "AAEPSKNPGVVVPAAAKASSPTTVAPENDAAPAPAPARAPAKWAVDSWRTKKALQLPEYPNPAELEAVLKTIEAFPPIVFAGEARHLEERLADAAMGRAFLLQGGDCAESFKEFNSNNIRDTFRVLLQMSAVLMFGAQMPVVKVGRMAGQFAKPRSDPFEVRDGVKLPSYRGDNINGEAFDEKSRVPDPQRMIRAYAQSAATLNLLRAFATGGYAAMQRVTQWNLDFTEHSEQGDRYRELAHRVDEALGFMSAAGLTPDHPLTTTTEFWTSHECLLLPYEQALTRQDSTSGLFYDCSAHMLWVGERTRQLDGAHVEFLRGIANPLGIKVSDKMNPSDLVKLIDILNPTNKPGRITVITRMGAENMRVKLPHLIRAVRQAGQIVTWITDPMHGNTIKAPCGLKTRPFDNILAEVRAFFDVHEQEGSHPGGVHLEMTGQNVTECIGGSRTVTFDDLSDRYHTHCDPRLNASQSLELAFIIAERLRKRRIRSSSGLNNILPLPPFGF", "assay": "DHS activity: effector inhibition", "assay_type": "biochemical", "conditions": "effector 0.5 mM", "protocol": "(§5) In contrast, BdDHS1b was not inhibited by arogenate even up to 2.5 mM. In fact, DHS1b activity increased in the presence of high concentrations of arogenate (FIG. 4F), likely due to high concentrations of contaminant NaCl present in the arogenate preparation (FIG. 16). Under acidic conditions, arogenate is known to undergo a spontaneous dehydration and decarboxylation into […]. […] Like in Brachypodium DHS enzymes, 0.5 mM arogenate inhibited SbDHS1a and SbDHS2 at ˜50% and ˜40%, respectively, but had no effect on SbDHS1b."}, "[7]": {"target": "T3, Sorghum bicolor SbDHS2, SEQ ID NO: 13, recombinant (Sorghum bicolor, UniProt C5YJQ4)", "T3 construct": "pET28a (NdeI/BamHI), E. coli KRX", "T3 sequence (C5YJQ4 42-508)": "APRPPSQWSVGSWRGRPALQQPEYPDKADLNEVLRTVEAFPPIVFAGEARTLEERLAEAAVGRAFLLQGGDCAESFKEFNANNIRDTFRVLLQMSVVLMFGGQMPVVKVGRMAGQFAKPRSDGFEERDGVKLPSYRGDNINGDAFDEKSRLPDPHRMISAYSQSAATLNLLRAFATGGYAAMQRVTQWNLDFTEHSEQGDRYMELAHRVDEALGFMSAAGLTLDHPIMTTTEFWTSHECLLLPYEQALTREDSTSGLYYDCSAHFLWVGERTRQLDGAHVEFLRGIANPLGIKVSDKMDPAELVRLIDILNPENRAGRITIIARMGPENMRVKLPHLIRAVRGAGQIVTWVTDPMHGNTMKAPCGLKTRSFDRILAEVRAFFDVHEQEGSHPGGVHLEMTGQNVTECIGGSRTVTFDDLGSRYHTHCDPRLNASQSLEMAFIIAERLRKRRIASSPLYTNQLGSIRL", "assay": "DHS activity: effector inhibition", "assay_type": "biochemical", "conditions": "effector 0.5 mM", "protocol": "as §5"}, "[8]": {"target": "Sorghum bicolor SbDHS1a, SEQ ID NO: 9, recombinant (Sorghum bicolor, UniProt C5X2H5)", "sequence (C5X2H5 46-540)": "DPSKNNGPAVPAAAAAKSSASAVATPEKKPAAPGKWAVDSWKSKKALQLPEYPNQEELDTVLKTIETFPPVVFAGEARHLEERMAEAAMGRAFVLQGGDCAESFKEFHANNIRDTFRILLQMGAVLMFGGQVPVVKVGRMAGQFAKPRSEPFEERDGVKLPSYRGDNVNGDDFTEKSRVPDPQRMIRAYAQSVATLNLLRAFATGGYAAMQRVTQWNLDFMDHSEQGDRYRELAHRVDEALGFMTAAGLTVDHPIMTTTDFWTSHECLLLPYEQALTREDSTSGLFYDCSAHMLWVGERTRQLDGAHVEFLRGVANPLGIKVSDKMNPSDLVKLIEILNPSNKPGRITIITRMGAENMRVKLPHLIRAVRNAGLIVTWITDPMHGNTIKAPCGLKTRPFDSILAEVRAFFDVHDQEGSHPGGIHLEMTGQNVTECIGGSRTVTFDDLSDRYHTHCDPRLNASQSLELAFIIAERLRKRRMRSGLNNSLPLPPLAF", "assay": "DHS activity: effector inhibition", "assay_type": "biochemical", "conditions": "effector 0.5 mM", "protocol": "as §5"}, "[9]": {"target": "Arabidopsis thaliana AtDHS2 (Arabidopsis thaliana, UniProt Q00218)", "sequence (Q00218 2-507)": "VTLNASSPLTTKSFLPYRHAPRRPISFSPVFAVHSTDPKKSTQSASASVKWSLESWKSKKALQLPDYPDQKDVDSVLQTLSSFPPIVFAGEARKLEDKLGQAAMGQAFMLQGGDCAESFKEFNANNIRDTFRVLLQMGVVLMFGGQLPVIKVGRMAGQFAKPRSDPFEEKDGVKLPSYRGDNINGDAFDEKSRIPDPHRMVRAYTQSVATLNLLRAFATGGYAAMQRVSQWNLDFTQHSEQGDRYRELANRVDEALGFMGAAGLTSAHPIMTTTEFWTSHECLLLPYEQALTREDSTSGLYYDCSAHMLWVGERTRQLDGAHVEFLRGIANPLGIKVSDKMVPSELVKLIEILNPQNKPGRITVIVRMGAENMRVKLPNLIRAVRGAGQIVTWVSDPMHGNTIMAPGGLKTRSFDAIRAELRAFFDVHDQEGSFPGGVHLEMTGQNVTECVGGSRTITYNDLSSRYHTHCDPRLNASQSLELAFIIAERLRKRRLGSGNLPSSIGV", "assay": "DHS inhibition assay with hydrolyzed arogenate", "assay_type": "biochemical", "conditions": "arogenate treated with 1N HCl for 30 minutes (FIG. 16A)", "method": "All DHS effectors tested were included in the initial reaction mixtures at a concentration of 0.5 mM, except for IC50 determination for arogenate and tryptophan, in which variable concentrations were used. To ensure at least 10 minutes of linear reaction, enzyme mass per reaction was carefully adjusted to between 100 to 300 ng (depending on the specific activity of each specific isoform) using DHS storage buffer supplemented with BSA. […] The enzymatic reaction was started with the addition of E4P (variable concentration, see below)."}, "[10]": {"tested_on": "Brachypodium distachyon DHS enzymes (BdDHS1a, BdDHS1b, BdDHS2)", "assay": "DHS activity: kinetics and effector inhibition, three isoforms together", "assay_type": "biochemical", "conditions": "arogenate treated with 1N HCl for 30 minutes (FIG. 16A)", "from_the_text": "as §1, §2, §3"}}, "note": "Several values for one entry are separate records, joined by “and”; a condition that tells them apart may be missing. Equal entries are not always repeated. Structures can show the parent of a compound that is named as a salt.", "data": [{"smiles": "N[C@@H](CC1(C(=O)O)C=CC(O)C=C1)C(=O)O", "note": "(stereo partly shown) [arogenate]", "values": [{"measurement": "IC50", "setting": "[1]; IC50 (arogenate), 1.5 mM PEP, 2 mM E4P", "value": "~285 µM and 285 µM"}, {"measurement": "inhibition at 500 µM", "setting": "[1]; read-out: inhibition at 0.5 mM", "value": "~50", "unit": "%"}, {"measurement": "kcat/Km", "setting": "[2]", "value": "579600 ± 24300", "unit": "M⁻¹ s⁻¹"}, {"measurement": "kcat/Km", "setting": "[3]", "value": "337500 ± 19500", "unit": "M⁻¹ s⁻¹"}, {"measurement": "inhibition by arogenate up to 2.5 mM", "setting": "[4]; even up to 2.5 mM", "value": "not inhibited"}, {"measurement": "IC50", "setting": "[4]; read-out: IC50 (arogenate)", "value": "> 500", "unit": "µM"}, {"measurement": "IC50", "setting": "[5]; 1.5 mM PEP, 2 mM E4P, read-out: IC50 (arogenate)", "value": "~91 µM and 91 µM"}, {"measurement": "mode of inhibition with respect to E4P", "setting": "[5]; FIG. 18", "value": "uncompetitive inhibition kinetics"}, {"measurement": "mode of inhibition with respect to PEP", "setting": "[5]; FIG. 18", "value": "mixed inhibition mechanism"}, {"measurement": "inhibition at 500 µM", "setting": "[5]; effector 0.5 mM, read-out: inhibition at 0.5 mM", "value": "> 75", "unit": "%"}, {"measurement": "effect at 0.5 mM", "setting": "[6]", "value": "no effect"}, {"measurement": "inhibition at 500 µM", "setting": "[7]", "value": "~40", "unit": "%"}, {"measurement": "inhibition at 500 µM", "setting": "[8]", "value": "~50", "unit": "%"}]}, {"smiles": "N[C@@H](Cc1ccccc1)C(=O)O", "note": "[Arogenate incubated with HCl]", "values": [{"measurement": "inhibition by hydrolyzed arogenate", "setting": "[9]", "value": "does not inhibit"}, {"measurement": "inhibition by hydrolyzed arogenate", "setting": "[10]", "value": "did not inhibit"}, {"measurement": "inhibition by hydrolyzed arogenate", "setting": "[10]; listed as Arogenate that is hydrolyzed to phenylalanine", "value": "does not inhibit"}]}]}
